IC50 and Ki data for 23 compounds are collected here from patent US7858640B2, “Quinolines and their therapeutic use” (Pulmagen Therapeutics (Asthma) Limited, priority 2005, dated 2010).

Structures are written as SMILES.

Assay [1] addresses T1, CRTH2 receptor (Homo sapiens, UniProt Q9Y5Y4).
T1 sequence (Q9Y5Y4 1-395): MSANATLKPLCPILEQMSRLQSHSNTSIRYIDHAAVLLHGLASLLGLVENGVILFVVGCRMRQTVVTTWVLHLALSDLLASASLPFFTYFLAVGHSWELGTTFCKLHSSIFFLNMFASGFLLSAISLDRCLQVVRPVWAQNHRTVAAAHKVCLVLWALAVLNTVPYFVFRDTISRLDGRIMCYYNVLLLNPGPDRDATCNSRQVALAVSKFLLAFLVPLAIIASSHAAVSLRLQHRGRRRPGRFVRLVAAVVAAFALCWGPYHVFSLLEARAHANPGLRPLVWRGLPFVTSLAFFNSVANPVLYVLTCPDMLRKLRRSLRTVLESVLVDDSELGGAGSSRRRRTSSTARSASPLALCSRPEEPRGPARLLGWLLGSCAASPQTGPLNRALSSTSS
In words: Functional assay: calcium mobilisation. The settings on record: CHO-K1 cells co-expressing CRTH2 receptor and Gα16; antagonism of PGD2 at its EC80. Details: expressed in transfected cells. The format is cell-based. As for the experimental part: Functional Assay: Calcium Mobilisation
Stable CHO-K1 cells co-expressing the CRTH2 receptor and the G-protein Gα16 are seeded (40,000 cells per well in a plating volume of 75 μL in F-12 Hams supplemented with 1% foetal bovine serum) into collagen-coated 96-well, plates 24 hours prior to the assay. The cells are then loaded with a fluorescence-imaging plate reader (FLIPR) calcium kit dye (Calcium 3 kit, Molecular Devices Ltd) containing 5 mM final concentration of probenecid and incubated at 37° C. for 1 hour in a 5% CO2 atmosphere. The fluorescence emission caused by intracellular calcium mobilization elicited by the PGD2 at the CRTH2 receptor is determined with a FLEXstation benchtop scanning and integrated fluid transfer workstation (Molecular Devices Ltd). To detect antagonists and determine compound IC50, compounds are pre-incubated at varying concentrations with the loaded cells for 15 minutes at 37° C., 5% CO2, prior to the addition of the agonist at its EC80 value. Compounds and agonist are added in Hanks balanced salt solution containing 20 mM HEPES and 0.1% BSA). The fractional response values for each well are calculated by subtracting the basal response from the peak response. Results are calculated as the mean of triplicate wells using Excel and XLfit (Microsoft).
For orientation: A change in cytosolic calcium serves as a functional read-out for many receptors and channels.

For assay [2], the target named is T1, CRTH2 receptor. As to the kind of experiment: Radioligand binding assay ([3H]-PGD2 displacement, SPA). Details: expressed in transfected cells; host or cells: HEK cell membranes. The settings on record: HEK cell membranes expressing the CRTH2 receptor, 1 nM [3H]-PGD2; Ki from IC50 by Cheng-Prusoff. As for the experimental part: Radioligand Binding Assay
The receptor binding assay is performed in a final volume of 200 μL binding buffer [10 mM BES (pH 7.4), 1 mM EDTA, 10 mM manganese chloride, 0.01% BSA] and 1 nM [^3H]-PGD2 (Amersham Biosciences UK Ltd). Ligands are added in assay buffer containing a constant amount of DMSO (1% by volume). Total binding is determined using 1% by volume of DMSO in assay buffer and non-specific binding is determined using 10 μM of unlabeled PGD2 (Sigma). Human embryonic kidney (HEK) cell membranes (3.5 μg) expressing the CRTH2 receptor are incubated with 1.5 mg wheatgerm agglutinin SPA beads and 1 nM [^3H]-PGD2 (Amersham Biosciences UK Ltd) and the mixture incubated for 3 hours at room temperature. Bound [^3H]-PGD2 is detected using a Microbeta TRILUX liquid scintillation counter (Perkin Elmer). Compound IC50 value is determined using a 6-point dose response curve in duplicate with a semi-log compound dilution series. IC50 calculations are performed using Excel and XLfit (Microsoft), and this value is used to determine a Ki value for the test compound using the Cheng-Prusoff equation.

Take `Cc1nc2c(Cl)ccc(CC(=O)O)c2c(C)c1Sc1ccc(Cl)cc1` [Example 12, [8-chloro-3-(4-chlorophenylsulfanyl)-2,4-dimethylquinolin-5-yl]acetic Acid]: the IC50 (commonly the concentration that gives 50% inhibition) on CRTH2 receptor [1] is less than 100 nM. Further, the Ki – broadly, a measure of affinity in units of concentration, obtained from inhibition or displacement – on CRTH2 receptor [2] is less than 100 nM.

As to `Cc1nc2c(Cl)ccc(OCC(=O)O)c2c(OC(F)F)c1Cc1ccc(F)cc1` [Example 18, [8-chloro-4-difluoromethoxy-3-(4-fluorobenzyl)-2-methylquinolin-5-yloxy]acetic acid], on CRTH2 receptor [1], the IC50 was less than 100 nM. The compound also had a Ki at CRTH2 receptor [2] of less than 100 nM.

As to `Cc1nc2c(Cl)ccc(OCC(=O)O)c2c(C)c1Cc1ccc(S(C)(=O)=O)cc1` [Example 20, [8-chloro-3-(4-methanesulfonylbenzyl)-2,4-dimethylquinolin-5-yloxy]acetic Acid], the concentration for half-maximal inhibition (IC50) at CRTH2 receptor [1] was less than 1000 nM. Besides, at CRTH2 receptor [2], the Ki is less than 100 nM.

As for `Cc1nc2c(Cl)ccc(-c3nnn[nH]3)c2c(C)c1Cc1ccc(Cl)cc1` [Example 42, 8-chloro-3-(4-chlorobenzyl)-2,4-dimethyl-5-(1H-tetrazol-5-yl)quinoline], the IC50 at CRTH2 receptor [1] was less than 1000 nM. In addition, the Ki on CRTH2 receptor [2] was less than 10000 nM.

For the compound `CCS(=O)(=O)c1ccc(Cc2c(OC(F)F)nc3c(F)ccc(OCC(=O)O)c3c2C)cc1` [Example 61, [2-difluoromethoxy-3-(4-ethanesulfonylbenzyl)-8-fluoro-4-methylquinolin-5-yloxy]acetic Acid], the Ki on CRTH2 receptor [2] is less than 100 nM.

Take `CCc1nc2c(Cl)ccc(OCC(=O)O)c2c(OC(F)F)c1Cc1ccc(Cl)cc1F` [Example 62, [8-chloro-3-(4-chloro-2-fluorobenzyl)-4-difluoromethoxy-2-ethylquinolin-5-yloxy]acetic Acid]: the Ki at CRTH2 receptor [2] was less than 100 nM.

`CCc1nc2c(F)ccc(OCC(=O)O)c2c(OC(F)F)c1Cc1ccc(Cl)cc1F` [Example 63, [3-(4-chloro-2-fluorobenzyl)-4-difluoromethoxy-2-ethyl-8-fluoroquinolin-5-yloxy]acetic acid] had a Ki at CRTH2 receptor [2] of less than 100 nM.

`CCc1nc2c(F)ccc(OCC(=O)O)c2c(OC(F)F)c1Cc1ccc(S(=O)(=O)N2CCOCC2)cc1` [Example 64, {4-difluoromethoxy-2-ethyl-8-fluoro-3-[4-(morpholine-4-sulfonyl)benzyl]quinolin-5-yloxy}acetic acid]: the Ki at CRTH2 receptor [2] is less than 100 nM.

As for `CCc1nc2c(F)ccc(OCC(=O)O)c2c(OC(F)F)c1Cc1ccc(C(=O)N2CCCC2)cc1` [Example 65, {4-difluoromethoxy-2-ethyl-8-fluoro-3-[4-(pyrrolidine-1-carbonyl)benzyl]quinolin-5-yloxy}acetic Acid], the Ki on CRTH2 receptor [2] is less than 100 nM.

`Cc1c(Cc2ccc(Cl)cc2)c(OC(F)F)nc2c(Cl)ccc(OC(C)(C)C(=O)O)c12` [Example 66, 2-[8-chloro-3-(4-chlorobenzyl)-2-difluoromethoxy-4-methylquinolin-5-yloxy]-2-methylpropionic Acid] had a Ki on CRTH2 receptor [2] of less than 10000 nM.

As to `Cc1c(Cc2ccc(Cl)cc2Cl)c(OC(F)F)nc2c(F)ccc(OC(C)C(=O)O)c12` (stereo not drawn) [Example 67, 2-[3-(2,4-dichlorobenzyl)-2-difluoromethoxy-8-fluoro-4-methylquinolin-5-yloxy]propionic Acid], the Ki on CRTH2 receptor [2] was less than 100 nM.

In the case of `Cc1c(Cc2ccc(Cl)cc2Cl)c(OC(F)F)nc2c(F)ccc(O[C@@H](C)C(=O)O)c12` [Example 68, (S)-2-[3-(2,4-dichlorobenzyl)-2-difluoromethoxy-8-fluoro-4-methylquinolin-5-yloxy]propionic Acid], the Ki on CRTH2 receptor [2] is less than 100 nM.

`Cc1c(Cc2ccc(Cl)cc2)c(OC(F)F)nc2c(Cl)ccc(OC(C)C(=O)O)c12` (stereo not drawn) [Example 69, 2-[8-chloro-3-(4-chlorobenzyl)-2-difluoromethoxy-4-methylquinolin-5-yloxy]propionic Acid]: the Ki on CRTH2 receptor [2] was less than 100 nM.

For the compound `Cc1c(Cc2ccc(Cl)cc2Cl)c(OC(F)F)nc2c(F)ccc(O[C@H](C)C(=O)O)c12` [Example 70, (R)-2-[3-(2,4-dichlorobenzyl)-2-difluoromethoxy-8-fluoro-4-methylquinolin-5-yloxy]propionic Acid], at CRTH2 receptor [2], the inhibition constant (Ki) is less than 100 nM.

As for `CCc1nc2c(Cl)ccc(OCC(=O)O)c2c(OC(F)F)c1Cc1ccc(C(=O)N2CCCC2)cc1` [Example 71, {8-chloro-4-difluoromethoxy-2-ethyl-3-[4-(pyrrolidine-1-carbonyl)benzyl]quinolin-5-yloxy}acetic Acid], at CRTH2 receptor [2], the Ki is less than 100 nM.

On to `CCc1nc2c(F)ccc(OCC(=O)O)c2c(OC(F)F)c1Cc1ccc(C(=O)N2CCCC2)cc1Cl` [Example 72, {3-[2-chloro-4-(pyrrolidine-1-carbonyl)benzyl]-4-difluoromethoxy-2-ethyl-8-fluoroquinolin-5-yloxy}acetic Acid], for which the Ki at CRTH2 receptor [2] is less than 100 nM.

In the case of `CCc1nc2c(F)ccc(O[C@@H](C)C(=O)O)c2c(OC(F)F)c1Cc1ccc(C(=O)N2CCCC2)cc1Cl` [Example 73, (S)-2-{3-[2-chloro-4-(pyrrolidine-1-carbonyl)benzyl]-4-difluoromethoxy-2-ethyl-8-fluoroquinolin-5-yloxy}propionic Acid], the Ki at CRTH2 receptor [2] is less than 100 nM.

For the compound `CCc1nc2c(F)ccc(O[C@@H](C)C(=O)O)c2c(OC(F)F)c1Cc1ccc(Cl)cc1Cl` [Example 74, (S)-2-[3-(2,4-dichlorobenzyl)-4-difluoromethoxy-2-ethyl-8-fluoroquinolin-5-yloxy]propionic Acid], on CRTH2 receptor [2], the Ki is less than 100 nM.

Take `CCc1nc2c(F)ccc(O[C@@H](C)C(=O)O)c2c(OC)c1Cc1ccc(Cl)cc1Cl` [Example 75, (S)-2-[3-(2,4-dichlorobenzyl)-2-ethyl-8-fluoro-4-methoxyquinolin-5-yloxy]propionic Acid]: the Ki at CRTH2 receptor [2] is less than 100 nM.

`CCc1nc2c(F)ccc(OCC(=O)O)c2c(OC(F)F)c1Cc1ccc(C(=O)NC2CCC2)cc1Cl` [Example 76, [3-(2-chloro-4-cyclobutylcarbamoylbenzyl)-4-difluoromethoxy-2-ethyl-8-fluoroquinolin-5-yloxy]acetic Acid] registered a Ki at CRTH2 receptor [2] of less than 100 nM.

For the compound `CCc1nc2c(F)ccc(O[C@@H](C)C(=O)O)c2c(OC(F)F)c1Cc1ccc(C(=O)NC2CCC2)cc1Cl` [Example 77, (S)-2-[3-(2-chloro-4-cyclobutylcarbamoylbenzyl)-4-difluoromethoxy-2-ethyl-8-fluoroquinolin-5-yloxy]propionic acid], on CRTH2 receptor [2], the Ki is less than 100 nM.

The compound `Cc1cc(OCC(=O)O)c2c(C)c(Cc3ccc(Cl)cc3)cnc2c1` [Example 78, [3-(4-chlorobenzyl)-4,7-dimethylquinolin-5-yloxy]acetic Acid] showed a Ki on CRTH2 receptor [2] of less than 10000 nM.

`Cc1nc2cccc(OCC(=O)O)c2cc1Cc1ccc(Cl)cc1` [Example 79, [3-(4-chlorobenzyl)-2-methylquinolin-5-yloxy]acetic Acid]: the Ki on CRTH2 receptor [2] is less than 10000 nM.
